Columns and labels:
[1] = Compartmentalisation of small molecules in water-in-fluorocarbon emulsions (epifluorescence microscopy); format: physicochemical; conditions: water-in-perfluorooctyl bromide emulsions mixed by vortexing; 24 hours after mixing
Procedure: FIG. 3. Compartmentalisation of small molecules in water-in-fluorocarbon emulsions. Water-in-perfluorooctyl bromide emulsions were made containing texas red (1 mM) and calcein (1 mM) in the aqueous phase by homogenisation as described in example 9. The two emulsions were mixed by vortexing and imaged by epifluorescence microscopy after 24 hours. No exchange of texas-red (red fluorescence) and calcein (green fluorescence) between microdroplets could be observed.
Water-in-fluorocarbon emulsions containing 95% (v/v) perfluorooctyl bromide, 5% (v/v) phosphate buffered saline containing the molecule of interest in solution, and 2% (w/v) C8F17C11H22OP(O)[N(CH2CH2)2O]2 (F8H11DMP) as surfactant were formed essentially as (Sadtler et al., 1996) by extrusion (15 times) through 14 μm filters (Osmonics) or by homogenising for 5 min at 25,000 r.p.m. using an Ultra-Turrax T8 Homogenizer (IKA) with a 5 mm dispersing tool. Emulsions were made containing a series of small fluorescent molecules dissolved in the aqueous phase at concentrations from […] to 2 mM. These molecules, including calcein, texas red, fluorescein, coumarin 102, 7-hydroxycoumarin-3-carboxylic acid and 7-diethylamino-4-methyl coumarin (coumarin 1), had molecular weights from 203 to 625 Da and Log P values—calculated using SRC's Log Kow/KowWin Program (Meylan and Howard, 1995)—ranging from −0.49 to 4.09. […]

[2] = molecular target: T1, human recombinant PTPIB, residues 1-322 (Homo sapiens, UniProt P18031); test: Screening for PTPIB inhibitors in water-in-oil emulsion microcapsules with fluorogenic substrate DiFMUP, multi-colour flow cytometry; format: biochemical; conditions: 100 μM compound, 37° C. for 30 min
T1 construct: human recombinant PTPIB, residues 1-322; purchased Biomol Research Laboratories, Inc
T1 sequence (P18031 1-322): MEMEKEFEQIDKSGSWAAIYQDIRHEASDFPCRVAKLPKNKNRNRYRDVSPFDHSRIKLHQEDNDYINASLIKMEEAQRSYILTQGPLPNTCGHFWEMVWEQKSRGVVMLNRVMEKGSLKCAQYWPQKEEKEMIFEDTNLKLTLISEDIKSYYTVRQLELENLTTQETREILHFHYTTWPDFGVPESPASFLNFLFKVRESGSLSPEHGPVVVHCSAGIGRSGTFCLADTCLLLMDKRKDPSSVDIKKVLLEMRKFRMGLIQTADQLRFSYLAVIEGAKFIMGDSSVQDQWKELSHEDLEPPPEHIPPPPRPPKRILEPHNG
Procedure: The syringes are fitted into the openings on both sides of the filter holder of the extruder. The compound mix is forced through the filter holder into the alternate syringe containing the decane/surfactant mix and directly forced back into the original syringe to complete one round of extrusion. In total, 7.5 rounds of extrusion are completed. The filled syringe is removed from the extruder and emptied into a 1.7 ml Axygen tube (# MCT-175-C, Axygen Scientific, Inc., Union City, Calif., USA).
The two emulsions are mixed by vortexing in ratios varying from 1:1000 to 1:1 (compound 2 emulsion: hydrocinnamic acid emulsion) and incubated at 37° C. for 30 min. Inhibitors reduce the amount of non-fluorescent substrate (DiFMUP) converted to the dephosphorylated product (DiFMU; excitation/emmission maxima 358/452 nm; blue fluorescence). […]
The double emulsions are then analysed by multi-colour flow cytometery using a MoFlo (Cytomation) flow cytometer. […]
50 μl of each of the compound mixtures is added sequentially to a solution of 1% (w/v) Span 60 and 1% (w/v) cholesterol in decane, made and held at 37° C. as example 1, whilst homogenising at 25,000 r.p.m. using an Ultra-Turrax T8 Homogenizer (IKA) with a 5 mm dispersing tool. […] Inhibitors reduce the amount of non-fluorescent substrate (DiFMUP) converted to the dephosphorylated product (DiFMU; excitation/emmission maxima 358/452 nm; blue fluorescence). […]

[3] = molecular target: T1, human recombinant PTPIB, residues 1-322; test: Screening for PTPIB inhibitors using microcapsules in microfluidic systems (DiFMUP, epifluorescence microscope); format: biochemical; conditions: Example 5; 100 μM compound solution; PTPIB 50 mU/ml; fused microcapsules run up to 2 min
Procedure: Microchannels are fabricated with rectangular cross-sections using rapid prototyping in poly(dimethylsiloxane) (PDMS) (McDonald and Whitesides, 2002) and rendered hydrophobic as (Song and Ismagilov, 2003). Syringe pumps were used to drive flows (Harvard Apparatus PHD 2000 Infusion pumps). For aqueous solutions, 50 μl Hamilton Gastight syringes (1700 series, TLL) with removeable needles of 27-gaugeare used with 30-gauge Teflon tubing (Weico Wire and Cable). For the carrier fluid, 1 ml Hamilton Gastight syringes (1700 series, TLL) are used with 30-gauge Teflon needles with one hub from Hamilton (Song and Ismagilov, 2003). The carrier fluid is 9% (v/v) C6F11C2H4OH in perfluorodecaline (PFD) (Song et al., 2003). All water-soluble reagents were dissolved in (25 mM HEPES, pH 7.4, 125 mM NaCl, 1 mM EDTA), a buffer compatible with PTPIB activity.
These three steams are continuously injected into a flow of water immiscible fluorocarbon carrier fluid (9% (v/v) C6FπC2H OH in PFD). Inlet channels for the aqueous solutions are […] wide and channel for PFD is 28 μm wide. […]
The channel immediately downstream of the point of droplet formation is winding with a peak to peak distance of 50 μm for a distance of 1 mm. […] Fluorescence of the microcapsules due to production of DiFMU (excitation/emmission maxima 358/452 nm; blue fluorescence) is measured using an epifluorescence microscope.

PTPIB = molecular target: T2, PTPIB (Homo sapiens, UniProt P18031); conditions: Johnson et al., 2002; cited from earlier work
T2 sequence (P18031 1-435): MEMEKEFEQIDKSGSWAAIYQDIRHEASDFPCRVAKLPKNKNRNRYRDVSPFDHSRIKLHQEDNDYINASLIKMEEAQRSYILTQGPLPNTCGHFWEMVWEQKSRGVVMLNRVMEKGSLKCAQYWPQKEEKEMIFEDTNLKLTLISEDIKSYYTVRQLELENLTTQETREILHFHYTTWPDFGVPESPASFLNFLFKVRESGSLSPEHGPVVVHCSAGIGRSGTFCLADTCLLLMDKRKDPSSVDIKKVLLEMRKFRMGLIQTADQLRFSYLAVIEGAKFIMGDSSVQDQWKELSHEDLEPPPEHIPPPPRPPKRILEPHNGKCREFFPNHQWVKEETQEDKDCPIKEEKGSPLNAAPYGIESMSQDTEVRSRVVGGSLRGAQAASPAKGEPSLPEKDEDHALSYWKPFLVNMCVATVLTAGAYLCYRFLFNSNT

Compound	exchange between microdroplets/compartments [1]	blue fluorescence of microcapsules (DiFMU from dephosphorylation of DiFMUP by PTPIB) ([2]; Example 1, two emulsions mixed 1:1000 to 1:1)	blue fluorescence of microcapsules (DiFMU from dephosphorylation of DiFMUP by PTPIB) ([2]; Example 2, mixtures added sequentially to one oil phase)	fluorescence of the microcapsules due to production of DiFMU [3]	PTPIB inhibitor or not (PTPIB)
O=C(O)CN(CC(=O)O)Cc1cc2c(cc1O)Oc1cc(O)c(CN(CC(=O)O)CC(=O)O)cc1C21OC(=O)c2ccccc21 [calcein]	No exchange				
texas red	No exchange				
O=C(O)CCc1ccccc1 [hydrocinnamic acid]		also show blue fluorescence	also show blue fluorescence	exhibiting blue fluorescence	not a PTPIB inhibitor

Source: patent publication US10151698B2, “Selection by compartmentalized screening” (Medical Research Council, priority 2003, dated 2018)
